Experimental data from US20230390402A1, “IONIZABLE CATIONIC LIPID ANALOG MATERIAL AND USE THEREOF AS DRUG DELIVERY CARRIER” (GUANGZHOU LIDE BIOMEDICINE TECHNOLOGY CO., LTD., priority 2021, published 2023).

Assays:
DC 2.4 cells = assay: Transfection of eGFP-expressing mRNA in DC 2.4 cells (FCM and LSCM); type: cell-based, mouse; details: material 0.25-2 μg/well, mRNA 0.2 μg/well, 24 h, compared with Lipofectamine 2000
Procedure: In this experiment, with eGFP-mRNA as model mRNA, an mRNA transfection efficiency of a cationic lipid analog material in DC 2.4 cells was detected. A specific operation method was as follows:
DC 2.4 cells were inoculated in a 48-well plate and cultured in an incubator for 12 h; each of different cationic lipid analog materials (0.25 μg/well to 2 μg/well) was mixed with eGFP-expressing mRNA (0.2 μg/well) in 20 μL of a sodium acetate buffer (25 mM, pH 5.2), and resulting mixtures each were allowed to stand for 10 min and then diluted with 230 μL of a Opti-MEM medium to obtain mRNA-loaded complex particle solutions; a medium for the DC 2.4 cells in the plate was removed, then the DC 2.4 cells were washed once with PBS, and the complex particle solutions each were added; and the cells were cultured for 24 h, an mRNA transfection efficiency in cells was observed by FCM and LSCM. A commercial gene transfection reagent Lipofectamine 2000 was adopted as a positive control.

HeLa cells = assay: Transfection of GFP-expressing plasmid DNA in HeLa cells (FCM); type: cell-based; details: material 0.25-8 μg/well, plasmid DNA 0.5 μg/well, 24 h, compared with Lipofectamine 2000
Procedure: In this experiment, with GFP-expressing plasmid DNA as a reporter gene, a gene transfection efficiency of a cationic lipid analog material in HeLa cells was detected. A specific method was as follows:
HeLa cells were inoculated in a 24-well plate and cultured in an incubator for 12 h; each of different cationic lipid analog materials—(0.25 μg/well to 8 μg/well) was mixed with GFP-expressing plasmid DNA (0.5 μg/well) in 40 μL of a sodium acetate buffer (25 mM, […] resulting mixtures each were allowed to stand for 10 min and then diluted with 460 μL of a Opti-MEM medium to obtain plasmid DNA-loaded cationic lipid analog complex particle solutions; a medium for the HeLa cells in the plate was removed, then the HeLa cells were washed once with PBS, and the complex particle solutions each were added; and the cells were further cultured for 24 h, and then a plasmid DNA transfection efficiency in cells was analyzed by FCM. A commercial gene transfection reagent Lipofectamine 2000 was adopted as a positive control.

## CCCCCCCCCCCCCCCC(=O)N(CCCN(C)C)C(C(=O)NCCCCCCNC(=O)C(C(C)C)N(CCCN(C)C)C(=O)CCCCCCCCCCCCCCC)C(C)C (stereo not shown) [I1R2C16A1]
DC 2.4 cells
  mRNA transfection efficiency (eGFP-mRNA): equivalent to or higher than

## CCCCCCCC/C=C\CCCCCCCC(=O)N(CCCN(C)C)C(C(=O)NCCCCCCNC(=O)C(C(C)C)N(CCCN(C)C)C(=O)CCCCCCC/C=C\CCCCCCCC)C(C)C (stereo not shown) [I1R2C18-1A1]
DC 2.4 cells
  mRNA transfection efficiency (eGFP-mRNA): equivalent to or higher than

## CCCCC/C=C\C/C=C\CCCCCCCC(=O)N(CCCN(C)C)C(C(=O)NCCCCCCNC(=O)C(C(C)C)N(CCCN(C)C)C(=O)CCCCCCC/C=C\C/C=C\CCCCC)C(C)C (stereo not shown) [I1R2C18-2A1]
HeLa cells
  transfection efficiency of GFP-expressing plasmid DNA (positive rate): equivalent to or higher than
DC 2.4 cells
  mRNA transfection efficiency (eGFP-mRNA): equivalent to or higher than

## CCCCCCCCCCCCCCCCCC(=O)N(CCCN(C)C)C(C(=O)NCCCCCCNC(=O)C(C(C)C)N(CCCN(C)C)C(=O)CCCCCCCCCCCCCCCCC)C(C)C (stereo not shown) [I1R2C18A1]
DC 2.4 cells
  mRNA transfection efficiency (eGFP-mRNA): equivalent to or higher than

## CCCCCCCCCCCCCCCC(=O)N(CCC1CCCN1C)C(C(=O)NCCCCCCNC(=O)C(C(C)C)N(CCC1CCCN1C)C(=O)CCCCCCCCCCCCCCC)C(C)C (stereo not shown) [I1R11C16A1]
DC 2.4 cells
  mRNA transfection efficiency (eGFP-mRNA): equivalent to or higher than

## CCCCCCCCCCCCCCCCCC(=O)N(CCC1CCCN1C)C(C(=O)NCCCCCCNC(=O)C(C(C)C)N(CCC1CCCN1C)C(=O)CCCCCCCCCCCCCCCCC)C(C)C (stereo not shown) [I1R11C18A1]
DC 2.4 cells
  mRNA transfection efficiency (eGFP-mRNA): equivalent to or higher than

## CCCCC/C=C\C/C=C\CCCCCCCC(=O)N(CCN(C)C)C(C(=O)NCCOCCOCCNC(=O)C(C(C)C)N(CCN(C)C)C(=O)CCCCCCC/C=C\C/C=C\CCCCC)C(C)C (stereo not shown) [I2R1C18-2A1]
HeLa cells
  transfection efficiency of GFP-expressing plasmid DNA (positive rate): equivalent to or higher than

## CCCCCCCCCCCCCC(=O)N(CCCN(C)C)C(C(=O)NCCOCCOCCNC(=O)C(C(C)C)N(CCCN(C)C)C(=O)CCCCCCCCCCCCC)C(C)C (stereo not shown) [I2R2C14A1]
HeLa cells
  transfection efficiency of GFP-expressing plasmid DNA (positive rate): equivalent to or higher than
DC 2.4 cells
  mRNA transfection efficiency (eGFP-mRNA): equivalent to or higher than

## CCCCCCCCCCCCCC(=O)C(CCCN(CC)CC)C(C(=O)NCCOCCOCCNC(=O)C(C(C)C)N(CCCN(CC)CC)C(=O)CCCCCCCCCCCCC)C(C)C (stereo not shown) [I2R3C14A1]
DC 2.4 cells
  mRNA transfection efficiency (eGFP-mRNA): equivalent to or higher than

## CCCCCCCCCCCCCCN(CCC1CCCN1C)C(C(=O)NCCOCCOCCNC(=O)C(C(C)C)N(CCC1CCCN1C)C(=O)CCCCCCCCCCCCC)C(C)C (stereo not shown) [I2R11C14A1]
HeLa cells
  transfection efficiency of GFP-expressing plasmid DNA (positive rate): equivalent to or higher than
DC 2.4 cells
  mRNA transfection efficiency (eGFP-mRNA): equivalent to or higher than

## CCCCCCCCCCCCCCCCN(CCC1CCCN1C)C(C(=O)NCCOCCOCCNC(=O)C(C(C)C)N(CCC1CCCN1C)C(=O)CCCCCCCCCCCCCCC)C(C)C (stereo not shown) [I2R11C16A1]
HeLa cells
  transfection efficiency of GFP-expressing plasmid DNA (positive rate): equivalent to or higher than
DC 2.4 cells
  mRNA transfection efficiency (eGFP-mRNA): equivalent to or higher than

## CCCCCCCC/C=C\CCCCCCCC(=O)N(CCC1CCCN1C)C(C(=O)NCCOCCOCCNC(=O)C(C(C)C)N(CCC1CCCN1C)C(=O)CCCCCCC/C=C\CCCCCCCC)C(C)C (stereo not shown) [I2R11C18-1A1]
HeLa cells
  transfection efficiency of GFP-expressing plasmid DNA (positive rate): equivalent to or higher than
DC 2.4 cells
  mRNA transfection efficiency (eGFP-mRNA): equivalent to or higher than

## CCCCCCCCCCCCCCCCCCN(CCC1CCCN1C)C(C(=O)NCCOCCOCCNC(=O)C(C(C)C)N(CCC1CCCN1C)C(=O)CCCCCCCCCCCCCCCCC)C(C)C (stereo not shown) [I2R11C18A1]
HeLa cells
  transfection efficiency of GFP-expressing plasmid DNA (positive rate): equivalent to or higher than
DC 2.4 cells
  mRNA transfection efficiency (eGFP-mRNA): equivalent to or higher than
